By melting point is commonly meant the temperature, or range, at which the solid turns liquid.

As to `CCCc1nn(C)c2c(NCc3ccc(OC)c(Cl)c3)nc(CCC(=O)O)nc12` [Example 2, 3-[7-(3-chloro-4-methoxybenzylamino)-1-methyl-3-propyl-1H-pyrazolo[4,3-d]pyrimidin-5-yl]propionic acid], the melting point came to 178 °C.
